Data set [1] has as its target T1, Mammalian Thymidylate Synthase (Homo sapiens, UniProt P04818).
T1 construct: made in house; host or cells: Escherichia coli
Briefly: Thymidylate synthase inhibition, tritium release assay. The class given is biochemical.

Data set [2] has as its system SW480 human colon adenocarcinoma. Briefly: Tumor cell culture cytotoxicity (MTT dye reduction), SW480. In general terms: Tetrazolium assays rely on reduction of a dye to a coloured formazan, in cell work by metabolically active cells.
Procedure: SW480 and WiDr colon adenocarcinomas, MCF-7 breast adenocarcinoma, A427 lung carcinoma and MOLT-4 T-cell leukemia were used for the primary screening of compounds. […] MCF-7, A427 and SW480 were grown in the above medium further supplemented with sodium pyruvate.
(§1) Cells are seeded into 96-well plates using a Perkin-Elmer Pro/pette. SW480 and A427 were seeded at 8,000 cells per well, MCF-7 at 10,000, Widr at 7500, and MOLT-4 at 12,500 cells per well, all in 150 µl of medium. Prior to the addition of drugs, cultures were incubated for 24 hrs at 37°. Compounds were added at 2×concentration in 150 l of medium and each concentration was assayed in triplicate. If DMSO or ethanol were used to solubilize compounds, appropriate controls were run if the concentration exceeded 0.01%. Cultures were incubated for 72 hours (96 hours for SW480 and MCF-7) in a 37° humidified incubator at 5% CO2. Inhibition of cell growth was measured using the MTT dye reduction assay.
(§2) Cell dilutions for a standard curve were prepared from a 72 hour log-phase culture. Serial dilutions were seeded in triplicate in 96-well plates and incubated at 37 degrees for one hour. MTT (3-(4,5-dimethylthiazol-2-yl)-2,5-diphenyltetrazolium bromide) was dissolved in PBS at 5 mg/ml and sonicated for 30 seconds. Using the Perkin Elmer Pro/pette, 200 μl of medium was removed and 100 μl of MTT added to the wells of the standard curve and test plates. Suspension cultures were spun for 5 min at 1000 rpm before removing medium from the wells. Plates were incubated for 1 hour at 370 on a platform shaker. Following this incubation 100 ml of medium was removed from the wells and 100 μl of DMSO added to each well. The plates were sonicated for approximately 10 seconds to solubilize the precipitated formazan dye. The absorbance of each well was measured using a Titertek Multiscan MC microtiter plate reader at 570 nm with a reference wavelength of 750 nm. Data was collected using a Mariachi Seed-2 and stored and analyzed using an IBM-AT and Lotus 1-2-3 software.
The nature of data set [3]: Cell culture cytotoxicity, L cells. It is filed as cell-based. Conditions: mouse, L fibroblast cell line, read-out: Tumor Cell Culture Cytotoxicity IC50 Other (L).
Procedure: as §1, §2
Data set [4] in a line: Cell culture cytotoxicity, D98. The class given is cell-based. The conditions noted are these: human, D98 bone marrow cell line, read-out: Tumor Cell Culture Cytotoxicity IC50 Other (D98).
Procedure: as §1, §2
Where [5] appears, read: Homo sapiens, SW480, read-out: Tumor Cell Culture Cytotoxicity IC50 SW480, Table B, fully aromatic 3-amino derivatives.
Setting [6] is: Table C, 5,6-dihydro 3-amino derivatives.
Setting [7] is: Table D, 5,6-dihydro 3-methyl derivatives.
[8] abbreviates: Table E, fully aromatic 3-methyl derivatives.
Where [9] appears, read: Homo sapiens, SW480, read-out: Cell Culture Cytotoxicity CCCT SW-480, Table F, fully aromatic p-aminobenzoylglutamates.
The mark [10] stands for this setting: Homo sapiens, SW480, read-out: Cell Culture Cytotoxicity CCCT SW-480, Table G, dihydrobenzoquinazoline p-aminobenzoylglutamates.

Where two headings read alike, the source gives them in different places.

T1 sequence (P04818 whole entry): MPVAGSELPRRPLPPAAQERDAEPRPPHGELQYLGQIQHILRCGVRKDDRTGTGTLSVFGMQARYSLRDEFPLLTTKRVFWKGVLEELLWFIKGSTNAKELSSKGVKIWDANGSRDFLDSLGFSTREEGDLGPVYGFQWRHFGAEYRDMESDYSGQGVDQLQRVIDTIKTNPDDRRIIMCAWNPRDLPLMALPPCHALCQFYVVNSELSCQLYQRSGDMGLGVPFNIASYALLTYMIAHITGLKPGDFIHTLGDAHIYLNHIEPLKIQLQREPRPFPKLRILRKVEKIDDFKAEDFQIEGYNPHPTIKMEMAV

As for `Nc1nc2c3ccccc3c3ccccc3c2c(=O)[nH]1` [2-Aminodibenzo(f,h)quinazolin-4(3H)-one], the IC50 is 1 to 300 µM in data set [1] and 4 µM in data set [2] (setting [5]).

On to `Nc1nc2ccc3c(N)c(Br)ccc3c2c(=O)[nH]1` [3,7-Diamino-8-bromobenzo(f)quinazolin-1(2H)-one], for which the IC50 in data set [1] was 1 to 300 µM; in data set [2] (setting [5]) it was 20 µM.

As for `Nc1ccc2ccc3nc(N)[nH]c(=O)c3c2c1` [3,9-Diaminobenzo(f)quinazolin-1(2H)-one], the IC50 in data set [1] was less than 1 µM; in data set [2] (setting [5]) it was 80 µM.

Take `Nc1nc2ccc3cc(F)cc(N)c3c2c(=O)[nH]1` [3,10-Diamino-8-fluorobenzo(f)quinazolin-1(2H)-one]: the IC50 in data set [1] is 1 to 300 µM; in data set [2] (setting [5]), 70 µM.

With `Nc1nc2ccc3ccc(Br)c(N)c3c2c(=O)[nH]1` [3,10-Diamino-9-bromobenzo(f)quinazolin-1(2H)-one], the IC50 in data set [1] is less than 1 µM; in data set [2] (setting [5]) it was 30 µM.

As for `CSc1ccc2c(c1)-c1c(nc(N)[nH]c1=O)CC2` [3-Amino-5,6-dihydro-9-(methylthio)benzo(f)quinazolin-1(2H)-one], the IC50 at 72 h in data set [3] (setting [6]) turned out to be 46 µM.

Regarding `Nc1nc2ccc3c(F)cccc3c2c(=O)[nH]1` [3-Amino-7-fluorobenzo(f)quinazolin-1(2H)-one], the results for the IC50 in data set [1] and in data set [2] (setting [5]) were 1 to 300 µM and 30 µM, respectively.

As to `Nc1nc2ccc3c(I)cccc3c2c(=O)[nH]1` [3-Amino-7-iodobenzo(f)quinazolin-1(2H)-one], the IC50 is 1 to 300 µM in data set [1] and 10 µM in data set [2] (setting [5]).

`Nc1nc2ccc3c([N+](=O)[O-])c(Br)ccc3c2c(=O)[nH]1` [3-Amino-8-bromo-7-nitrobenzo(f)quinazolin-1(2H)-one]: the IC50 in data set [1] is 1 to 300 µM; in data set [2] (setting [5]), 25 µM.

As to `CCN(CC)S(=O)(=O)c1cc2c(ccc3nc(N)[nH]c(=O)c32)cc1Br` [3-Amino-8-bromo-N,N-diethyl-1,2-dihydro-1-oxobenzo(f)quinazoline-9-sulfonamide], the results for the IC50 in data set [1] and in data set [2] (setting [5]) were 1 to 300 µM and 2.5 µM, respectively.

With `Nc1nc2ccc3cc(F)cc([N+](=O)[O-])c3c2c(=O)[nH]1` [3-Amino-8-fluoro-10-nitrobenzo(f)quinazolin-1(2H)-one], the figures for the IC50 in data set [1] and in data set [2] (setting [5]) were 1 to 300 µM and 50 µM, respectively.

`CCSc1ccc2c(c1)-c1c(nc(N)[nH]c1=O)CC2` [3-Amino-9-(ethylthio)-5,6-dihydrobenzo(f)quinazolin-1(2H)-one]: the IC50 at 72 h worked out at 33 µM in data set [3] (setting [6]) and 54 µM in data set [4] (setting [6]).

In the case of `Nc1nc2ccc3ccc(Br)c([N+](=O)[O-])c3c2c(=O)[nH]1` [3-Amino-9-bromo-10-nitrobenzo(f)quinazolin-1(2H)-one], the results for the IC50 in data set [1] and in data set [2] (setting [5]) were less than 1 µM and 20 µM, respectively.

On to `Cc1cc2nc(N)nc(O)c2c2cc(Cl)ccc12` [3-Amino-9-chloro-6-methylbenzo(f)quinazolin-1(2H)-one], for which the figures for the IC50 in data set [1] and in data set [2] (setting [5]) were less than 1 µM and 2 µM, respectively.

In the case of `CCc1ccc2ccc3nc(N)[nH]c(=O)c3c2c1` [3-Amino-9-ethylbenzo(f)quinazolin-1(2H)-one], the figures for the IC50 in data set [1] and in data set [2] (setting [5]) were less than 1 µM and 20 µM, respectively.

On to `Nc1nc2ccc3ccc(O)cc3c2c(=O)[nH]1` [3-Amino-9-hydroxybenzo(f)quinazolin-1(2H)-one], for which the IC50 is less than 1 µM in data set [1] and 40 µM in data set [2] (setting [5]).

In the case of `Cc1ccc2ccc3nc(N)nc(O)c3c2c1` [3-Amino-9-methylbenzo(f)quinazolin-1(2H)-one], the IC50 at 72 h in data set [3] (Table B, fully aromatic 3-amino derivatives) turned out to be 8 µM. Further, the IC50 in data set [1] is less than 1 µM; in data set [2] (setting [5]), 30 µM.

For the molecule `Cc1nc2c(c(=O)[nH]1)-c1cc(S(=O)(=O)Nc3ccc(F)cc3)ccc1CC2` [4′-Fluoro-1,2,5,6-tetrahydro-3-methyl-1-oxobenzo(f)quinazoline-9-sulfonanilide], the IC50 in data set [2] (Homo sapiens, SW480, read-out: Tumor Cell Culture Cytotoxicity IC50 SW480, Table D, 5,6-dihydro 3-methyl derivatives) was found to be 25 µM.

Take `Cc1nc(O)c2c(n1)CCc1ccc(I)cc1-2` [5,6-Dihydro-9-iodo-3-methylbenzo(f)quinazolin-1(2H)-one]: the IC50 at 72 h in data set [3] (setting [7]) is 80 µM; in data set [4] (setting [7]), 70 µM.

As to `Cc1nc2ccc3c(Cl)cccc3c2c(=O)[nH]1` [7-Chloro-3-methylbenzo(f)quinazolin-1(2H)-one], the IC50 at 72 h in data set [3] (setting [8]) turned out to be 84 µM.

With `C#CCN(CC#C)S(=O)(=O)c1ccc2c(c1)CCc1nc(N)[nH]c(=O)c1-2` [8-SO2N-(Propargyl)2, 3-Amino-1,2,5,6-tetrahydro-1-oxo-N,N-bis(prop-2-vnyl)benzo[f]quinazoline-8-sulfonamide], the IC50 in data set [2] (read-out: Tumor Cell Culture Cytotoxicity IC50 SW480, Table C, 5,6-dihydro 3-amino derivatives) worked out at 60 µM.

Take `Cc1nc2ccc3ccc(Cl)cc3c2c(=O)[nH]1` [9-Chloro-3-methylbenzo(f)quinazolin-1(2H)-one]: the values for the IC50 at 72 h in data set [3] (setting [8]) and in data set [4] (setting [8]) were 80 µM and 82 µM, respectively.

On to `Cc1nc(O)c2c(ccc3ccc(F)cc32)n1` [9-Fluoro-3-methylbenzo(f)quinazolin-1(2H)-one], for which the IC50 at 72 h in data set [3] (setting [8]) came out at 50 µM; in data set [4] (setting [8]), 72 µM.

For `Cc1nc2ccc3ccc(/C=C/c4ccc(C(=O)N[C@@H](CCC(=O)O)C(=O)O)cc4)cc3c2c(=O)[nH]1` [(E)-N-(4-(2(1,2-Dihydro-3-methyl-1-oxobenzo[f]quinazolin-9-yl)vinyl)benzoyl)-L-glutamic acid], in data set [2] (setting [9]), the IC50 was greater than 100 µM.

With `Cc1nc2ccc3ccc(CN(C)c4ccc5c(c4)CN([C@@H](CCC(=O)O)C(=O)O)C5=O)cc3c2c(=O)[nH]1` [(S)-2-(5-(((1,2-Dihydro-3-methyl-1-oxobenzo[f]quinazolin-9-yl)methyl)methylamino)-1-oxo-2-isoindolinyl)glutaric acid], the IC50 in data set [2] (setting [9]) was determined as 0.5 µM.

As for `Cc1nc2ccc3ccc(CNc4ccc5c(=O)n([C@@H](CCC(=O)O)C(=O)O)sc5c4)cc3c2c(=O)[nH]1` [CH3,9-CH2NH, 2′-SNglu, (S)-2-(2.3-Dihydro-6-(((1,2-dihydro-3-methyl-1-oxobenzo[f]quinazolin-9-yl)methyl)amino)-3-oxo-1,2-benxisothiazol-2-yl)glutaric acid], the IC50 in data set [2] (read-out: Cell Culture Cytotoxicity CCCT SW-480, Table F, fully aromatic p-aminobenzoylglutamates) came out at 2 µM.

`C=Cc1ccc2ccc3nc(N)[nH]c(=O)c3c2c1` [Example 9-Ethenyl, 3-Amino-9-vinylbenzo[f]quinazolin-1(2H)-one]: in data set [2] (setting [5]), the IC50 turned out to be 6 µM.

Regarding `Cc1nc2ccc3ccc(CCc4ccc(C(=O)N[C@@H](CCC(=O)O)C(=O)O)cc4)cc3c2c(=O)[nH]1` [N-(4-(2-(1,2-Dihydro-3-methyl-1-oxobenzo[f]quinazolin-9-yl)ethyl)benzoyl)-L-glutamic acid], the IC50 in data set [2] (setting [9]) was 9 µM.

`Cc1nc2ccc3cc(CNc4ccc(C(=O)N[C@@H](CCC(=O)O)C(=O)O)cc4)ccc3c2c(=O)[nH]1` [N-(4-(((1,2-Dihydro-3-methyl-1-oxobenzo[f]quinazolin-8-yl)methyl)amino)benzoyl)-L-glutamic acid]: in data set [2] (setting [9]), the IC50 was greater than 100 µM.

For the molecule `C#CCN(c1ccc(C(=O)N[C@@H](CCC(=O)O)C(=O)O)cc1)S(=O)(=O)c1ccc2c(c1)CCc1nc(N)[nH]c(=O)c1-2` [N-(4-(((3-Amino-1,2,5,6-tetrahydro-1-oxobenzo(f)quinazolin-8-yl)sulfonyl)(2-propynyl)amino)benzoyl)-L-glutamic acid], in data set [2] (setting [10]), the IC50 was greater than 50 µM.

Consider `Nc1nc2c(c(=O)[nH]1)-c1ccc(S(=O)(=O)Nc3ccc(C(=O)N[C@@H](CCC(=O)O)C(=O)O)cc3)cc1CC2` [N-(4-(((3-Amino-1,2,5,6-tetrahydro-1-oxobenzo(f)quinazolin-8-yl)sulfonyl)amino)benzoyl)-L-glutamic acid], for which the IC50 in data set [2] (setting [10]) amounted to 25 µM.

In the case of `Nc1nc2ccc3ccc(NS(=O)(=O)c4ccc(C(=O)N[C@@H](CCC(=O)O)C(=O)O)cc4)cc3c2c(=O)[nH]1` [N-(4-(((3-Amino-1,2-dihydro-1-oxobenzo(f)quinazolin-9-yl)amino)sulfonyl)benzoyl)-L-glutamic acid], the IC50 in data set [2] (setting [9]) is greater than 100 µM.

For `Nc1nc2c(c(=O)[nH]1)-c1cc(S(=O)(=O)Nc3ccc(C(=O)N[C@@H](CCC(=O)O)C(=O)O)cc3)c(Br)cc1CC2` [N-(4-(((3-Amino-8-bromo-1,2,5,6-tetrahydro-1-oxobenzo(f)quinazolin-9-yl)sulfonyl)amino)benzoyl)-L-glutamic acid], the IC50 in data set [2] (setting [10]) is greater than 50 µM.

For the molecule `Cc1nc2c(c(=O)[nH]1)-c1cc(S(=O)(=O)N(C)c3ccc(C(=O)N[C@@H](CCC(=O)O)C(=O)O)cc3)ccc1CC2` [N-(4-(Methyl((1,2,5,6-tetrahydro-3-methyl-1-oxobenzo(f)quinazolin-9-yl)sulfonyl)amino)benzoyl)-L-glutamic acid], the IC50 in data set [2] (setting [10]) was greater than 50 µM.

As to `Cc1nc2ccc3ccc(CNc4ccc(C(=O)N[C@@H](CCC(=O)O)C(=O)O)s4)cc3c2c(=O)[nH]1` [N-((5-(((1,2-Dihydro-3-methyl-1-oxobenzo[f]quinazolin-9-yl)methyl)amino-2-thienyl)carbonyl)-L-glutamic acid], the IC50 in data set [2] (read-out: Tumor Cell Culture Cytotoxicity IC50 SW480, Table E, fully aromatic 3-methyl derivatives) was 0.1 µM.

The record behind these values is patent US6762188B1, “Pharmaceutically active benzoquinazoline compounds” (SmithKline Beecham Corporation, priority 1990, dated 2004).
